Measurements taken from US20250289994A1, “METHODS FOR IMPROVING HYDROCARBON PRODUCTION FROM A SUBTERRANEAN FORMATION” (CHEVRON U.S.A. INC., priority 2024, published 2025).

Test: Static partitioning test for DME in brine and oil
Type: physicochemical
Settings: room temperature, >12 hours equilibration, 150 psi
Excerpt: To measure partitioning of the miscible solvent in contact with oil and brine for a particular chemical concentration, salinity of aqueous phase, oil type, temperature, and pressure.
Load accumulator #1 with brine and accumulator #2 with oil. Apply vacuum to sapphire cell #1 and sapphire cell #2 on the loading side of the piston. Fill the opposite side with water or lab oil. Prepare loading loop with a known volume with liquid DME at room temperature (pressure >100 psi) to ensure a target concentration of DME when injected. Connect loading loop to sapphire cell #1 (vacuum side) and to accumulator #1. Connect the opposite side of the sapphire (water side) to BPR to keep pressure inside the cell at 150 psi. Then, displace DME from the loop with brine and inject into the sapphire cell #1. Isolate and disconnect the sapphire cell #1. Then, rock the cell until liquid DME and brine get properly mixed and homogenized. Equilibrate aqueous mix for a couple of hours. Connect the accumulator #2 with the sapphire cell #2, and the sapphire cell to the BPR. Then, inject oil into the sapphire cell #2. The volume of the injected oil is the one for the desired aqueous to oil ratio (i.e. 50/50 aqueous to oil by volume). Connect the sapphire cell #1 (DME in aqueous side) to the sapphire cell #2 (oil side) and inject DME in aqueous side to cell #2. The volume of the injected aqueous phase is the one for the desired aqueous to oil ratio. The pressure inside the sapphire cell # is controlled by BPR at 150 psi. Isolate and disconnect the sapphire cell #2. Then, rock the cell until liquid aqueous and oil get properly mixed. Let the cell equilibrate for 12 hours at room temperature (˜70° F.). Prepare a solution of 1:1 by volume of deionized water and methanol. Collect a sample of aqueous phase (DME in brine) from cell #2 and mix it with methanol solution in a volumetric proportion of 1:1. Measure DME concentration in aqueous mixture from previous step via gas chromatography (GC). Then, calculate partitioning of DME in between brine and oil phase, this is the partitioning coefficient.
KDME=DME partitioning coefficient; CDME,aq=mass fraction of DME in aqueous phase at equilibrium; and CDME,oil=mass fraction of DME in oleic phase at equilibrium.
Alternatively, to measuring DME concentration via GC and after isolating and disconnecting sapphire cell #2, both aqueous phase and oleic phase could be separated, and then individually taken to a PVT cell at 1 atm and 70° F. After DME evolves from each phase as gas, amounts of evolved DME could be measured and partitioning coefficient calculated.

## COC [DME, dimethyl ether]
0.5% DME + Methanol, Volatile Oil, salinity 115,000 ppm
  DME partition coefficient: 1.13
0.5% DME, Volatile Oil, salinity 0 - DI water
  DME partition coefficient: 0.81
0.5% DME, Volatile Oil, salinity 103,000 ppm
  DME partition coefficient: 1.15
0.5% DME, Volatile Oil, salinity 150,000 ppm
  DME partition coefficient: 1.27
0.5% DME, Volatile Oil, salinity 300,000 ppm
  DME partition coefficient: 1.26
1% DME + Methanol, Black Oil, salinity 115,000 ppm
  DME partition coefficient: 1.87
1% DME + Methanol, Volatile Oil, salinity 115,000 ppm
  DME partition coefficient: 2.4
